Results reported in patent publication US12577231B2, “Androgen receptor PROTACS” (GlaxoSmithKline Intellectual Property Development Limited, priority 2023, dated 2026).
Residue numbers refer to the chain shown, from its start.

Legend:
Format in all cases: cell-based
[1] = target: T1, Androgen Receptor protein in human LnCaP cells (Homo sapiens, UniProt P10275, T878A); assay: Androgen Receptor Degradation Assay (Nano-Glo HiBiT, LnCaP cells); settings: 18 h, HiBiT-tagged AR LnCaP cells, 18 h incubation, fitted curve asymptote maximum of degradation, read-out: mean asymptote max
T1 construct: the AR gene was modified, using CRISPR/Cas9 editing, so the expressed AR protein included an 11 amino acid HiBiT tag; endogenous in cells; host or cells: clonal LnCaP derived cell line, endogenous AR gene edited by CRISPR/Cas9
T1 sequence (P10275 1-920 T878A): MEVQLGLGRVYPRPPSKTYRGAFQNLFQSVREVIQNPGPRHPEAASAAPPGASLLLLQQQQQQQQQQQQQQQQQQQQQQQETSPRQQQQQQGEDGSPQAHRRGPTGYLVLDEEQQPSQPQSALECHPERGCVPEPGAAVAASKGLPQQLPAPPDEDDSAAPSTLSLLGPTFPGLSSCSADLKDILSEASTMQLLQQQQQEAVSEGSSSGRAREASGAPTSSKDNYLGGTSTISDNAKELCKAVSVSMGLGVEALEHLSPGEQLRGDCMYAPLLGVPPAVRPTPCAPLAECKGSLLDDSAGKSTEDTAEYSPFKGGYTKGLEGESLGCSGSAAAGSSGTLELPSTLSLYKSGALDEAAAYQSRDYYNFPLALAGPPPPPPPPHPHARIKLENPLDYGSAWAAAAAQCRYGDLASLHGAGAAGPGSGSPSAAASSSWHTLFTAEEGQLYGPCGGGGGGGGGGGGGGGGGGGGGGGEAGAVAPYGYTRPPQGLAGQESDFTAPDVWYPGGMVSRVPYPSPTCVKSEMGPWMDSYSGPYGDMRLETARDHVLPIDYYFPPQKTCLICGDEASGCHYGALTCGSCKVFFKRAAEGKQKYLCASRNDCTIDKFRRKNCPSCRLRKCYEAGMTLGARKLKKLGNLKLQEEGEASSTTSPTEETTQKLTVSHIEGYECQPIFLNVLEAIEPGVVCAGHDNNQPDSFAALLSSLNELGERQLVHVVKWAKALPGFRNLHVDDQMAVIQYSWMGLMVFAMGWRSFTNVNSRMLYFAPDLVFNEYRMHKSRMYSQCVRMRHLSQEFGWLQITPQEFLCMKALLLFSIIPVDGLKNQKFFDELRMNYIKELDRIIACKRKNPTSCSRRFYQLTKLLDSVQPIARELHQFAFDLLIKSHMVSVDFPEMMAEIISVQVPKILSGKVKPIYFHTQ
Experimental: Degradation of Androgen Receptor protein in human LnCaP cells treated with PROTACs was quantified using the Nano-Glo® HiBiT Lytic Detection System (Promega) in 384 well assay plate format. A clonal LnCaP derived cell line was first established in which the AR gene was modified, using CRISPR/Cas9 editing, so the expressed AR protein included an 11 amino acid HiBiT tag at its amino-terminus. 10 mM DMSO stock solutions of PROTACs were prepared and diluted across an 11 concentration, 3 fold increment range, and 25 nL dispensed into a white opaque bottomed 384 well assay plate (Thermofisher) using an acoustic ECHO dispenser (Labcyte). Cells were grown in cell culture medium (RPMI 1640 supplemented with 15% FBS, penicillin 50U/mL and streptomycin 50 ug/mL (Thermofisher)). For the assay, cells were detached from flask and resuspended with assay medium (FluoroBrite™ DMEM supplemented with 10% heat inactivated FBS, penicillin 50U/mL and streptomycin 50 ug/mL (Thermofisher)). The cell suspension was centrifuged at 400 g for 5 min and the pellet resuspended in assay medium. 25 μL of cell suspension containing 10,000 cells was dispensed into each well of the assay plate containing a serial dilution of test compounds, which was then incubated for 18 h at 37° C./5% CO2. Control wells were included on each assay plate, with assay medium without cells being the no AR remaining 100% effect control, and cells treated with DMSO vehicle only, without PROTAC, the 0% effect control. 25 μL of Nano-Glo® HiBiT lysis buffer supplemented with LgBiT protein and Nano-Glo® substrate (Promega) was added to each well and the plate shaken at 500 rpm for 10 min at room temperature. The intensity of luminescence was measured using a PHERAstar microplate reader (BMG Labtech) and the % AR protein remaining in each well calculated by normalising the raw luminescence value to the above control wells. Parameters corresponding to the potency and efficacy estimates of the PROTACs were obtained from these normalised luminescence values using software (IDBS ActivityBase). These included the DC50 (concentration at which 50% of protein was degraded in M) and the Dmax (maximal degradation, in %) estimates. Two versions of the DC50, called relative DC50 and absolute DC50, were generated. These are the inflection point of a fitted 4 parameter sigmoidal response curve and the interpolated concentration of PROTAC corresponding to 50% of the protein being degraded, respectively. The corresponding pDC50 is reported as −log10(relative […]). The Dmax parameter was the maximum experimentally observed degradation and the asymptote max parameter the fitted response curve asymptote maximum.

[2] = target: T2, Androgen Receptor, VCaP (AR wild type and amplified) (Homo sapiens, UniProt P10275); assay: Androgen Receptor Degradation-Imaging Assay, VCaP cell line; settings: 16 hours treatment, maximum observed degradation
T2 construct: endogenous in cells; host or cells: VCaP
T2 sequence (P10275 1-920): T1 sequence (P10275 1-920 T878A) with A878T
Experimental: (§1) Degradation of Androgen Receptor (AR) protein in human prostate cancer cell lines (MDA-PCa-2b (AR T878A/L702H), LNCaP (AR T878A), VCaP (AR wild type and amplified) 22RV1 (AR H875Y) and PC3 (AR negative control)) treated with AR PROTACs was quantified using immunofluorescence. Prostate cancer cells were plated (MDA-PCa-2b, and VCaP 16,000 cells/well; LNCaP and 22RV1 32,000 cells/well, and PC3 8,000 cells/well) in an optical bottom 96-well cell culture plate and allowed to attach overnight. The prostate cancer cell lines were treated for 16 hours with a 10-point 3-fold dilution series (dose range=0.02 nM to 333 nM). PC3 is included as an AR negative control and not treated with compound. Cells are fixed and permeabilized with 4% formaldehyde, blocked with 10% goat serum in immunofluorescence (IF) buffer (130 mM NaCl, 7 mM Na2HPO4, 3.5 mM NaH2PO4, 7.7 mM NaN3, 0.1% BSA, 0.2% Triton X, 0.05% Tween 20) prior to overnight incubation with rabbit antibody specific for C terminus of AR (commercially available from RevMaB Biosciences). Following washes with IF buffer, cells were incubated with fluorescent secondary antibody (Goat anti-rabbit Alexa 647; commercially available from Invitrogen) and Hoechst nuclear stain (commercially available from Themo Scientific) prior to quantification of nuclear AR levels via Opera Phenix high-content fluorescent imager using a 40× water objective. Image analysis was performed with Harmony software.
(§2) The averaged nuclear Alexa 647 median fluorescence intensity (MFI) of PC3 cells is subtracted from the nuclear Alexa 647 MFI of PROTAC treated and DMSO control treated cells. % AR remaining is calculated for PROTAC treatments as a percent of the DMSO control (MFI PROTAC treated/MFI DMSO control treated)*100). DC50 and the Dmax values, were obtained from these normalised values fitted with a 4-parameter sigmoidal response curve (Xlfit software). The DC50 is the interpolated concentration of PROTAC corresponding to 50% of the protein being degraded, and the Dmax parameter is the maximum experimentally observed degradation.

[3] = target: T3, Androgen Receptor, LNCaP (AR T878A) (Homo sapiens, UniProt P10275, T878A); assay: Androgen Receptor Degradation-Imaging Assay, LNCaP cell line; settings: 16 hours treatment, maximum observed degradation
T3 construct: endogenous in cells; host or cells: LNCaP
T3 sequence (P10275 1-920 T878A): T1 sequence (P10275 1-920 T878A)
Experimental: as §1, §2

[4] = target: T4, Androgen Receptor, MDA-PCa-2b (AR T878A/L702H) (Homo sapiens, UniProt P10275, L702H/T878A); assay: Androgen Receptor Degradation-Imaging Assay, MDA-PCa-2b cell line; settings: 16 hours treatment, maximum observed degradation
T4 construct: host or cells: MDA-PCa-2b
T4 sequence (P10275 1-920 L702H/T878A): T1 sequence (P10275 1-920 T878A) with L702H
Experimental: as §1, §2

SMILES | Dmax [1] [%] | Dmax [2] [%] | Dmax [3] [%] | Dmax [4] [%]
COc1cc(O[C@H]2C(C)(C)[C@H](NC(=O)c3ccc(N4CCC(CN5CCC(n6ncc7c(N8CCC(=O)NC8=O)ccnc76)CC5)CC4)c(F)c3)C2(C)C)ccc1C#N [Example 19, N-((1r,3r)-3-(4-Cyano-3-methoxyphenoxy)-2,2,4,4-tetramethylcyclobutyl)-4-(4-((4-(4-(2,4-dioxotetrahydropyrimidin-1(2H)-yl)-1H-pyrazolo[3,4-b]pyridin-1-yl)piperidin-1-yl)methyl)piperidin-1-yl)-3-fluorobenzamide] | ≥ 50 |  |  | 
COc1cc(O[C@H]2C(C)(C)[C@H](NC(=O)c3ccc(N4CCC(CN5CCC(n6ccc7c(N8CCC(=O)NC8=O)nccc76)CC5)CC4)c(F)c3)C2(C)C)ccc1C#N [Example 17, N-((1r,3r)-3-(4-Cyano-3-methoxyphenoxy)-2,2,4,4-tetramethylcyclobutyl)-4-(4-((4-(4-(2,4-dioxotetrahydropyrimidin-1(2H)-yl)-1H-pyrrolo[3,2-c]pyridin-1-yl)piperidin-1-yl)methyl)piperidin-1-yl)-3-fluorobenzamide] |  | ≥ 80 | ≥ 80 | ≥ 80
